ChEMBL document CHEMBL1157539, “Thousands of chemical starting points for antimalarial lead identification” (Nature, 2010)

These compounds were tested on Plasmodium falciparum (assay: GSK_TCMDC: Inhibition of Plasmodium falciparum 3D7 in whole erythrocytes, using parasite LDH activity as an index of growth.). Settings: Plasmodium falciparum, 3D7.
Format: functional, organism-based

SMILES	XC50 [nM]
Cc1cc(N/N=C/c2ccccc2[N+](=O)[O-])c2ccccc2n1	776
CC1CCCN(Cc2c(O)ccc3c(O)c(-c4nc5ccccc5s4)c(=N)oc23)C1 (stereo not given)	140
COc1ccc(C2CCN(C#N)C2)cc1OC1CCCC1 (stereo not given)	228
CCOc1ccc(NC(=O)c2cn3nc(-c4ccc(OCC)cc4)cc3nc2C2CCNCC2)cc1	515
O=[N+]([O-])c1cccc(-c2nc3cc(C4=NC5CCCCC5N4)ccc3[nH]2)c1 (stereo not given)	195
CC(C)c1ccc(NC(=O)N2CCc3ccc(OCCN(C(C)C)C(C)C)cc32)c(Br)c1	1090
COc1cc(OC)cc(-c2nn(-c3ccc([N+](=O)[O-])cc3C#N)c(=S)n2Cc2ccco2)c1	577
CC(=NNC(=N)N)C(=O)Nc1ccc(Cl)c(Cl)c1	166
Cc1cccc2nc(-c3ccc(-c4ccc(NC(=O)NC5CC5c5ccccc5)cc4)cc3)[nH]c12 (stereo not given)	876
COc1cccc(NC(=O)c2ccc(NCCCN3CCC(C)CC3)c([N+](=O)[O-])c2)c1	770
CCCNc1ccc2nccc(CCN3CCC(NCc4ccc5c(n4)NC(=O)CS5)CC3)c2n1	720
CN(C)CCOc1cccc(NC(=O)Nc2ccc(-c3ccccc3)cc2)c1	878
CCCNCc1ccc(-c2ccc(CN(CCOC)C(=O)c3nn(-c4ccccc4)nc3C)cc2)nc1	725
CCCCc1cc(NCC)nc(Nc2ccc(OC)cc2)n1	1180
CCOc1ccc(/C=C/C(=O)Nc2cccc3c2CCN(C)C3)cc1	1110
NC1=NC(Cc2ccccc2)N(c2ccc(Cl)cc2)C(N)=N1 (stereo not given)	137
CC1(C)CCC(C)(C)c2c1ccc(C1CCN(CCCCNC(=O)c3ccc(-c4ccc(C#N)cc4)cc3)CC1)c2O	226
CCN(CCCN1CCCCC1)c1cc(C)nc(Nc2cc(Cl)cc(Cl)c2)n1	286
CC(=O)COc1c(C2CCN(CCCCNC(=O)c3ccc(-c4ccc(C(F)(F)F)cc4)cc3)CC2)ccc2c1CCCC2	784
CCNCc1cccc(-c2ccc3ccnc(N)c3c2)c1	46.9
COc1ccc2ccccc2c1C=NN=c1cc(C)[nH]c2c(C)cccc12	818
CC(C)CCN(Cc1cncn1Cc1ccccc1F)C(=O)c1cncc(-c2ccccc2)c1	791
CN(C)c1ccc(CN2CCCCC(NC(=O)c3cc(-c4ccccc4F)cs3)C2)cc1 (stereo not given)	826
CCCC(C)Nc1nc(C)cc(N[C@@H](Cc2ccccc2)C(=O)NCCOc2ccccc2)n1 (stereo not given in full)	699
CC(C)CCNc1nc2ccccc2nc1Nc1cccc(C(F)(F)F)c1	905

SMILES	XC50 [nM]
CCCCCCC(C)c1cc(O)c2c(c1)OC(C)(C)C=C2c1ccncc1 (stereo not given)	733
Cn1ncc2c3c(CCN4CCC(NCc5cc6c(cn5)OCC6)CC4)c(Cl)cnc3ccc21	881
OCc1c(Cl)cc(Cl)cc1CNCCCNc1nc2ccccc2[nH]1	745
CC(=O)Nc1cccc(C(=O)Nc2cccc(-c3ccc(-c4nc5cc(F)ccc5[nH]4)s3)c2)c1	896
O=C(/C=C/c1ccc(Cl)c(Cl)c1)NCCCCCCN1CCN(C(=O)Nc2ccc(C(F)(F)F)cc2)CC1	397
N#CC(c1ccc(F)cc1)c1ccc2c(C(F)(F)F)cc(C(F)(F)F)nc2n1 (stereo not given)	726
Oc1ccc2[nH]c(-c3cccc(F)c3)nc2c1CN1CCCC1	795
Cc1cccc2nc(-c3cccc(-c4cccc(NC(=O)NC5CC5c5ccccc5)c4)c3)[nH]c12 (stereo not given)	705
CCN(CCCN1CCCCC1)c1cc(C)nc(Nc2ccc(Br)cc2F)n1	548
CN(C)CCCOc1ccc(CN2CCC(c3c[nH]c4ccc(NCC5CCCCC5)cc34)CC2)cc1	678
CCn1cc(C=C2Oc3c(ccc(O)c3CN3CCCCC3)C2=O)c2ccccc21	281
CCCOc1ccc(C=C(CC(=O)O)c2nc3ccccc3s2)cc1OCC	554
COc1cc(NC(=O)c2ccc(-c3ccc(C(C)=O)cc3)s2)ccc1OCCN1CCCC1	147
COc1cc2nccc(Nc3cccc(Oc4ccccc4)c3)c2cc1OC	643
O=[N+]([O-])c1ccc(CNCCCCCCNCc2ccc([N+](=O)[O-])c3ccccc23)c2ccccc12	787
COc1cccc(CNC(=O)c2cnc(N3CCN(c4ccncc4)CC3)c(Cl)c2)c1	1150
COc1cc2ncnc(Nc3ccc4nc(Cc5ccccc5)[nH]c4c3)c2cc1OC	1480
CCCCCCNC(=O)c1nn(CCN2CCC(N3CCCC3)CC2)cc1-c1ccc(Cl)c(Cl)c1	733
CCOC(=O)c1ccc(OCCCCCCOc2ccc(Br)cc2)cc1	777
O=C(Nc1cccc(CN2CCCN(Cc3ccc(O)cc3)CC2)c1)c1ccc(-c2ccccc2)cc1	342
Cc1ccc(NC(=O)c2cc([N+](=O)[O-])ccc2NCc2cccnc2)cc1Cl	1120
CCC(C)C(COC(=O)c1cc(OC)c(OC)c(OC)c1)N(C)CCN(C)C(COC(=O)c1cc(OC)c(OC)c(OC)c1)C(C)CC (stereo not given)	947
Cc1cccc2nc(-c3ccc(-c4ccc(CN5CCC(CO)CC5)cc4)s3)[nH]c12	812
CCC(C)NS(=O)(=O)c1ccc2nc(Nc3ccc(C)cc3)n(C3CCCCC3C)c2c1 (stereo not given)	592
O=C(Nc1ccccc1F)N(CCCn1ccnc1)Cc1csc(-c2ccc(CNCc3ccccc3)cc2)n1	841

SMILES	XC50 [nM]
COc1ccc2nccc([C@@H](O)CN3CCC(NCc4nc5cc(F)c(F)cc5[nH]4)CC3)c2c1	533
CC(C)CCN1CCCN(Cc2ccc(C(=O)Nc3ccc(C(C)(C)C)cc3)cc2)CC1	867
CCCCc1nc2nc(N)nc(N)c2cc1CCC	308
O=C(Nc1ccc(Cl)cc1)Nc1cccc(-c2cccc(-c3nc4ccccc4[nH]3)c2)c1	131
c1cc(CNCCc2ccncc2)cc(-c2csc(-c3nc4ccccc4[nH]3)c2)c1	258
Cc1cc(CN2CC[C@H](NC(=O)c3ccc(Cl)c(Cl)c3)C2)ccc1OCCN1CCCC1	1160
NC(=O)c1ccc(C(=O)Nc2cccc(-c3ccc(-c4nc5cc(C(F)(F)F)ccc5[nH]4)cc3)c2)cc1	514
COc1cc2nc(N3CCN(c4nc(N)c5cc(OC)c(OC)cc5n4)CC3)nc(N)c2cc1OC	146
COc1ccc2nccc([C@@H](O)CN3CCC(NCCc4c[nH]c5ccccc45)CC3)c2c1	210
CC(=O)Nc1ccc(CN(Cc2ccc(F)cc2)Cc2ccc3c(c2)OCO3)cc1	943
CC(C)NCC(O)Cn1c2ccc(Br)cc2c2cc(Br)ccc21 (stereo not given)	451
CN1CCN(c2ccnc3ccc(NC(=O)Nc4ccc5c(c4)CCCC5=O)cc23)CC1	132
CN(C)CCN(C)Cc1ccc(-c2ccc(NC(=O)c3ccc(Cl)cc3)cc2)cc1	943
COc1cc2nccc(Nc3ccc4c(cnn4Cc4cccc(F)c4)c3)c2cc1OC	237
c1ccc2c3c(ccc2c1)Sc1c(ccc2ccccc12)N3	1070
COc1ccc(-c2nonc2NC(=O)c2ccc(OC(C)C)cc2)cc1OC	635
CCCN(CCC)CCCNc1ccc(C(=O)Nc2ccc(OCC)cc2)cc1[N+](=O)[O-]	992
COc1ccc(OCCn2cc(C(=O)c3ccco3)c3ccccc32)cc1	773
COc1cc(CCNC(=N)/C=C/c2ccc(Cl)cc2)ccc1Cl	241
Cc1cnc(C(=O)Nc2cccc(-c3cccc(-c4nc5cccc(C)c5[nH]4)c3)c2)cn1	579
O=C1Nc2cccc3c2C1(CCCCCN1CC=C(c2c[nH]c4ccccc24)CC1)CCC3 (stereo not given)	740
c1ccc2[nH]c(-c3ccc(-c4ccc(CN5CCN(CCN6CCOCC6)CC5)cc4)s3)nc2c1	280
CCCCCCCCS(=O)(=O)NCCCC1CCN(CCCCCNC(=O)C=Cc2ccc(Cl)c(Cl)c2)CC1	858
Cc1cc(C2CCCCN2C)ccc1-c1ccc(C(=O)N2CCc3cc4c(cc32)C2(CCN(C)CC2)CO4)cc1 (stereo not given)	791
O=C(/C=C/c1ccc(Cl)c(Cl)c1)NCCCCCN1CCCC(CNC(=O)c2sc3ccccc3c2Cl)C1 (stereo not given)	870

SMILES	XC50 [nM]
N=C(NCCc1ccc(Cl)c(Cl)c1)c1ccc2ccccc2c1	514
CC(Cc1ccc(OCCCCOc2ccccc2)cc1)NCCc1ccccc1Cl (stereo not given)	175
CCCCNCCOc1ccc(-c2nc(-c3ccccc3)c(-c3ccccc3)[nH]2)cc1	679
CC(C)(CNC(=O)C1CCN(CCOCc2ccccc2)CC1)c1nc(-c2ccc(Cl)c(O)c2)c(-c2ccncc2)[nH]1	620
O=C(O)CNCC(O)c1ccccc1 (stereo not given)	184
Cc1nnsc1C(=O)Nc1cccc(-c2cccc(-c3nc4cc(C(F)(F)F)ccc4[nH]3)c2)c1	235
CCCn1cnc2cc(C(=O)Nc3ccc(-c4cccc(CN(C)C)c4)cc3)ccc2c1=O	928
COc1ccc(C2NCCc3c2[nH]c2ccccc32)cc1CN1CCN(c2ccc(F)cc2)CC1 (stereo not given)	776
CS(=O)(=O)N1CC2(CCN(CCC(NC(=O)NCc3ccc(Cl)c(Cl)c3)c3ccc(Cl)c(Cl)c3)CC2)c2ccccc21 (stereo not given)	799
CN(C)CCc1c[nH]c2ccc(C(=O)Nc3ccc(-c4ccncc4)cc3)cc12	567
CCc1nnc2sc(-c3cccc(NC(=O)c4ccc(OC)c(Cl)c4)c3)nn12	1140
CC(=O)Nc1ccc(C(=O)Nc2cccc(-c3ccc(-c4nc5cc(C(F)(F)F)ccc5[nH]4)s3)c2)cn1	126
CCOc1cc(-c2nnc3[nH]c(=O)n(C)c(=O)c3n2)ccc1OC(C)C	400
FC(F)(F)c1cccc(CNCCCCCNCc2ccc(Cl)cc2)c1	1030
CCc1ccc(CN2CCC(CNC(=O)c3cc(-c4ccccc4Cl)cs3)C2)cc1 (stereo not given)	1430
CCOC(=O)C(=O)N1c2ccc(OCC)cc2-c2c(ssc2=S)C1(C)C	216
COC(=O)c1cccc(NC(=O)NC2CCN(c3ccnc(Nc4ccc(F)cc4)n3)C2)c1 (stereo not given)	500
CC(Cc1ccc(SC(C)C)cc1)NCC(O)c1cccc(Cl)c1 (stereo not given)	827
COc1ccccc1C1CN(CCNC(=O)c2nc(C)c[nH]2)Cc2ccccc2O1 (stereo not given)	797
Cc1cccc2nc(-c3ccc(-c4ccc(NC(=O)c5cncn5C)cc4)s3)[nH]c12	670
O=C(Nc1cccc(CN2CCCN(Cc3ccccc3)CC2)c1)c1ccc(-c2ccccc2)cc1	1300
CCCCCCNC(=O)C1Cc2c([nH]c3ccc(F)cc23)C2(CCN(Cc3ccccc3)CC2)N1 (stereo not given)	871
CN(c1ccccc1C(=O)Nc1ccccc1Oc1ccccc1)S(=O)(=O)c1ccccc1	1150
Cc1cc(NC(=O)Nc2ccc(I)c(OCCN(C)C)c2)ccc1Br	625
Cc1ccc(N2CCc3c(-c4cc5cccnc5nc4C)cc(C)nc32)c(Cl)c1	577
